Experimental data published in ChEMBL document CHEMBL5665443, “Enzyme Inhibitor Single Concentration assay results for EUbOPEN Chemogenomics Library” (2024).

What was measured:
[1] = target: Methyl-CpG-binding domain protein 4 (Homo sapiens) (UniProt O95243);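 note: MBD4 activity read as fluorescence at 594 nm from cleavage and release of a quenched duplex DNA oligonucleotide, with APE1 coupled to incise the strand and raise turnover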
Description: Inhibition of MBD4 by quantifying inhibition of MBD4-mediated cleavage and dissociation of quenched duplex DNA oligonucleotides, measured as fluorescence at 594 nm. To generate a functional strand incision and increase turn-over this assay is coupled to APE1.

[2] = target: DNA-3-methyladenine glycosylase (Homo sapiens) (UniProt P29372);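 note: enzyme assay where MPG cuts a quenched duplex DNA oligonucleotide probe, paired with APE1 for strand incision and turnover, read as fluorescence at 594 nm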
Sequence of DNA-3-methyladenine glycosylase (Homo sapiens) (P29372 whole entry): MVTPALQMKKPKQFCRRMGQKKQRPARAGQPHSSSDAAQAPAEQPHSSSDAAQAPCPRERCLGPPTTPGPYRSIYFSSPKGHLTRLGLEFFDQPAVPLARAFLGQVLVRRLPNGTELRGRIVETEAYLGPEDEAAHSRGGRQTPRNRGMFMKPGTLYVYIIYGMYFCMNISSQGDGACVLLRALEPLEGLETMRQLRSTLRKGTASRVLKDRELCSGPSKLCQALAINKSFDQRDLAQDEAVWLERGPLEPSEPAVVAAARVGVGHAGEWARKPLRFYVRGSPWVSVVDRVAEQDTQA
Description: Inhibition of MPG by quantifying inhibition of MPG-mediated cleavage and dissociation of quenched duplex DNA oligonucleotides, measured as fluorescence at 594 nm. To generate a functional strand incision and increase turn-over this assay is coupled to APE1.

[3] = target: T1, Adenine DNA glycosylase (Homo sapiens) (UniProt Q9UIF7); conditions: Hit No;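 note: human MUTYH activity read as 594 nm fluorescence from cleavage and release of a quenched DNA duplex, coupled with APE1 for strand incision, lower signal meaning inhibition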
T1 sequence (whole entry): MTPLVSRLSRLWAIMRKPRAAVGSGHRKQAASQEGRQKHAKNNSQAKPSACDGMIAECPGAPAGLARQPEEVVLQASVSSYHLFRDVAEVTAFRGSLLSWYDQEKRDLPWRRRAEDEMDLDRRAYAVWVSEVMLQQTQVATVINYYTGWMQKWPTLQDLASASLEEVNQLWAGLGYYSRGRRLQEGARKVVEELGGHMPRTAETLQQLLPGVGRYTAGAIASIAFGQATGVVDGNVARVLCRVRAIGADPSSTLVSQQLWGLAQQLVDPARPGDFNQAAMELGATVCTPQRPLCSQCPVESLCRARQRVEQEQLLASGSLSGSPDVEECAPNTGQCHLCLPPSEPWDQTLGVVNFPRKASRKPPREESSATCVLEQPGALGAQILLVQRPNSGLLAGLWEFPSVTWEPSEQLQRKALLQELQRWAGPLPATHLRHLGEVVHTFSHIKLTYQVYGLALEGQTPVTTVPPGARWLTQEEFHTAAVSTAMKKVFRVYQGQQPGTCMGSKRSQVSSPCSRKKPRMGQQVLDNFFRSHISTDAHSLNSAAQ
Description: Inhibition of MUTYH by quantifying inhibition of MUTYH-mediated cleavage and dissociation of quenched duplex DNA oligonucleotides, measured as fluorescence at 594 nm. To generate a functional strand incision and increase turn-over this assay is coupled to APE1.

[4] = target: Endonuclease 8-like 1 (Homo sapiens) (UniProt Q96FI4);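 note: fluorescence at 594 nm from quenched duplex DNA oligonucleotides released by NEIL1 cleavage and strand separation, reported as reduction of this enzyme activity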
Sequence of Endonuclease 8-like 1 (Homo sapiens) (Q96FI4 whole entry): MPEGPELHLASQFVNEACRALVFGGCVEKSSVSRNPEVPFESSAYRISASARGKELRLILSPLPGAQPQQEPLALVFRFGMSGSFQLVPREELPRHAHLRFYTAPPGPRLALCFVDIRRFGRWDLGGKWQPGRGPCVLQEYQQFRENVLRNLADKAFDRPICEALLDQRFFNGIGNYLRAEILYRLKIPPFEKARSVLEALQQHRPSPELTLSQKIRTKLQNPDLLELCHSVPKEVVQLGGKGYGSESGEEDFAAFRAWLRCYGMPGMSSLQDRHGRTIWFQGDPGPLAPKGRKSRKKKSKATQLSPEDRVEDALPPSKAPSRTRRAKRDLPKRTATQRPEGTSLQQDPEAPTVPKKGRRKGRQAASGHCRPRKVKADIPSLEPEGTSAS
Description: Inhibition of NEIL1 by quantifying inhibition of NEIL1-mediated cleavage and dissociation of quenched duplex DNA oligonucleotides, measured as fluorescence at 594 nm.

[5] = target: T2, Endonuclease 8-like 2 (Homo sapiens) (UniProt Q969S2);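 note: fluorescence at 594 nm reports NEIL2 cutting and release of a quenched double-stranded DNA oligo substrate, reduced signal read as inhibition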
T2 sequence (whole entry): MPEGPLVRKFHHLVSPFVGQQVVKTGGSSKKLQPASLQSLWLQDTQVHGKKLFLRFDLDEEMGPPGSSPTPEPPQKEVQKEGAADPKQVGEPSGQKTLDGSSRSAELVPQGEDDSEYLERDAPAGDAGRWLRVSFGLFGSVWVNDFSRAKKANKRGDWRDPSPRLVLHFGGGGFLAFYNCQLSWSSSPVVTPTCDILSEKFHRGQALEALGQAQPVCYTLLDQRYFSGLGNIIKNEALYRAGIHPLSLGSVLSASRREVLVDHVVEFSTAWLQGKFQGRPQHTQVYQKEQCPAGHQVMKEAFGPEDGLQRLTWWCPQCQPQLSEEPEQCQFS
Description: Inhibition of NEIL2 by quantifying inhibition of NEIL2-mediated cleavage and dissociation of quenched duplex DNA oligonucleotides, measured as fluorescence at 594 nm.

[6] = target: T3, Endonuclease III-like protein 1 (Homo sapiens) (UniProt P78549);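 note: enzyme assay tracking NTHL1 cutting and release of a quenched double-stranded DNA oligo substrate, read as fluorescence at 594 nm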
T3 sequence (whole entry): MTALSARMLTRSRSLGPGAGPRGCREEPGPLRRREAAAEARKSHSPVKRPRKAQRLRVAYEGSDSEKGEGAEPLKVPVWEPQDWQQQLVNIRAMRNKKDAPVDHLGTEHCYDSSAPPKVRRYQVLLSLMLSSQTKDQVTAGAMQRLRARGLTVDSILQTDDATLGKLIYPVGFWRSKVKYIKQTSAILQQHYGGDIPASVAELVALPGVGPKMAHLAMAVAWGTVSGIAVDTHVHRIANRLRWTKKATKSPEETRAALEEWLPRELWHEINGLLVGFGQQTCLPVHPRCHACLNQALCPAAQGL
Description: Inhibition of NTHL1 by quantifying inhibition of NTHL1-mediated cleavage and dissociation of quenched duplex DNA oligonucleotides, measured as fluorescence at 594 nm.

[7] = target: N-glycosylase/DNA lyase (Homo sapiens) (UniProt O15527);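 note: OGG1 cleavage of a quenched duplex DNA oligonucleotide, coupled to APE1 for strand incision, read as fluorescence at 594 nm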
Sequence of N-glycosylase/DNA lyase (Homo sapiens) (O15527 whole entry): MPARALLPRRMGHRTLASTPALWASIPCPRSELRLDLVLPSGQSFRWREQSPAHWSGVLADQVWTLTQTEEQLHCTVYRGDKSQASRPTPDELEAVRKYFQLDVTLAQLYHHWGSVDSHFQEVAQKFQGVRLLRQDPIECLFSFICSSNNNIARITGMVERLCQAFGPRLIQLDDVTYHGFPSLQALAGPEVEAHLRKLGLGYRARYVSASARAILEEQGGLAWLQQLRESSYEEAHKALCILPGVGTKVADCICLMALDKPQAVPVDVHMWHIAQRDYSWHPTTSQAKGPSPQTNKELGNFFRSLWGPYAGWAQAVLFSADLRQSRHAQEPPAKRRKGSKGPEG
Description: Inhibition of OGG1 by quantifying inhibition of OGG1-mediated cleavage and dissociation of quenched duplex DNA oligonucleotides, measured as fluorescence at 594 nm. To generate a functional strand incision and increase turn-over this assay is coupled to APE1.

[8] = target: T4, Single-strand selective monofunctional uracil DNA glycosylase (Homo sapiens) (UniProt Q53HV7);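 note: enzymatic SMUG1 assay coupled with APE1, reading fluorescence at 594 nm released when a quenched double-stranded DNA oligonucleotide substrate is cleaved and separated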
T4 sequence (whole entry): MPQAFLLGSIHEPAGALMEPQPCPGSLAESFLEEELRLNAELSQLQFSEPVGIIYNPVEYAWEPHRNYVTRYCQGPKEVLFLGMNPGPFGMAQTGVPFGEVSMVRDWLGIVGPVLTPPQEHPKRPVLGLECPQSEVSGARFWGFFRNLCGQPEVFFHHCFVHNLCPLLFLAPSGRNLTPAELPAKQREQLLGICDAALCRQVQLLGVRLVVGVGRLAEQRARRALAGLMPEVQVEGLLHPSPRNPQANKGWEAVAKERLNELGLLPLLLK
Description: Inhibition of SMUG1 by quantifying inhibition of SMUG1-mediated cleavage and dissociation of quenched duplex DNA oligonucleotides, measured as fluorescence at 594 nm. To generate a functional strand incision and increase turn-over this assay is coupled to APE1.

[9] = target: G/T mismatch-specific thymine DNA glycosylase (Homo sapiens) (UniProt Q13569);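 note: human TDG cleavage of quenched duplex DNA oligonucleotides coupled to APE1, strand release read as fluorescence at 594 nm, inhibition of TDG activity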
Sequence of G/T mismatch-specific thymine DNA glycosylase (Homo sapiens) (Q13569 whole entry): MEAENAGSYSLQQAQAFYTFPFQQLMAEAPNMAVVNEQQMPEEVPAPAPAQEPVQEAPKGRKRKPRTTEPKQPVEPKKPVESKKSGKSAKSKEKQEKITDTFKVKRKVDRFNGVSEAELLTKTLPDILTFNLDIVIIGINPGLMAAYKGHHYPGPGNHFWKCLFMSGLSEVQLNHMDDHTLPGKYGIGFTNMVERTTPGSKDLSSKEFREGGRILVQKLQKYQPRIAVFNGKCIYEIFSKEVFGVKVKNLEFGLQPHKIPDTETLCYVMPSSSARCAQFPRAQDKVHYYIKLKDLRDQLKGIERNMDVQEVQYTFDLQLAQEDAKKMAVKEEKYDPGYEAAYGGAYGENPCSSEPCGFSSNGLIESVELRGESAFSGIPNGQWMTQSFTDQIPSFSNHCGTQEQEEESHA
Description: Inhibition of TDG by quantifying inhibition of TDG-mediated cleavage and dissociation of quenched duplex DNA oligonucleotides, measured as fluorescence at 594 nm. To generate a functional strand incision and increase turn-over this assay is coupled to APE1.

[10] = target: Uracil-DNA glycosylase (Homo sapiens) (UniProt P13051); conditions: Hit No;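 note: UNG excision on a quenched double-stranded DNA oligo probe, with APE1 added for strand incision and turnover, read as fluorescence at 594 nm as strands separate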
Sequence of Uracil-DNA glycosylase (Homo sapiens) (P13051 whole entry): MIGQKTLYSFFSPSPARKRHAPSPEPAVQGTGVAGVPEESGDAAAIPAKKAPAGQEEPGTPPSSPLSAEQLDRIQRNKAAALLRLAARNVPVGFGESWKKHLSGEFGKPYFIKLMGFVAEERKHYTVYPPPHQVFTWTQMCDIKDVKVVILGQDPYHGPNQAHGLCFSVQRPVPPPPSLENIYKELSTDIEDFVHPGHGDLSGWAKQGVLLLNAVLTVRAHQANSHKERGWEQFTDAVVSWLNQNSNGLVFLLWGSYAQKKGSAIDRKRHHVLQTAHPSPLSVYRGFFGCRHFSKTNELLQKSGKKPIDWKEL
Description: Inhibition of UNG by quantifying inhibition of UNG-mediated cleavage and dissociation of quenched duplex DNA oligonucleotides, measured as fluorescence at 594 nm. To generate a functional strand incision and increase turn-over this assay is coupled to APE1.

[11] = Compound Concentration 10.0 uM, Hit No
[12] = Compound Concentration 1.0 uM, Hit No
[13] = Compound Concentration 10.0 uM, Hit Yes

Sequence of Methyl-CpG-binding domain protein 4 (Homo sapiens) (O95243 whole entry, the tested form may be a part): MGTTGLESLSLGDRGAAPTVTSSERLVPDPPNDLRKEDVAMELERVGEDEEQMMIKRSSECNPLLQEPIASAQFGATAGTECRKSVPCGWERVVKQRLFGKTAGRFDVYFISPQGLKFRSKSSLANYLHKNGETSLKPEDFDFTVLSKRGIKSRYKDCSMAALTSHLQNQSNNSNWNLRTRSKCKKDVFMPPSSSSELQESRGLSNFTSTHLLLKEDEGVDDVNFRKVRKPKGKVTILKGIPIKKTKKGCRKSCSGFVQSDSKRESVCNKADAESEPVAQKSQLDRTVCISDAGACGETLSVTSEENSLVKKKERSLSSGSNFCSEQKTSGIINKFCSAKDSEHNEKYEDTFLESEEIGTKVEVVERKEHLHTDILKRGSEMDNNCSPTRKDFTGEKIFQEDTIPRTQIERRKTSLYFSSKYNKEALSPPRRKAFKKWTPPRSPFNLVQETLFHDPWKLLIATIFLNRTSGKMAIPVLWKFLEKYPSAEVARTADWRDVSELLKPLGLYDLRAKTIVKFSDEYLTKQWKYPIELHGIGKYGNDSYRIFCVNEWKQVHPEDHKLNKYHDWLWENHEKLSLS

Compound | inhibition [1, 11] [%] | inhibition [2, 11] [%] | inhibition ([3]; Compound Concentration 10.0 uM) [%] | inhibition [4, 11] [%] | inhibition [5, 11] [%] | inhibition [6, 11] [%] | inhibition [7, 11] [%] | inhibition [8, 11] [%] | inhibition [9, 11] [%] | inhibition ([10]; Compound Concentration 10.0 uM) [%] | other results
CC(/C=C1\SC(=S)N(CCCC(=O)Nc2ccc(C(=O)O)c(O)c2)C1=O)=C\c1ccccc1 | 64 | 34.2 | 46.5 | 11.6 | 13.7 | 0.0916 | 25.4 | -1.92 | 53 | -7.24 | 
CC[C@H](C(=O)Nc1ccccc1N1CCCC1)c1ccccc1 | 34.6 | 33.7 | 20.6 | 13.8 | 3.22 | 2.22 | 0.561 | 1.62 | 33.1 | -2.53 | 
CNC1(C)C2CCC(C2)C1(C)C (stereo not given) | -0.892 | 6.27 | -4.75 | -4.14 | -4.94 | -2.73 | -5.59 | 1.51 | 10.2 | -5.36 | 
CCn1cnc2c(-c3ccc(F)c(-c4ccc(S(=O)(=O)CC)cc4OC)c3)cnnc21 | 19.2 | 7.34 | 16.3 | 6.83 | 12.9 | 13.8 | -5.04 | 1.23 | 22.3 | 6.05 | 
CC(=O)Nc1cccc(-n2c(=O)n(C3CC3)c(=O)c3c(Nc4ccc(I)cc4F)n(C)c(=O)c(C)c32)c1 |  |  |  |  |  |  |  |  |  |  | inhibition [1, 12]: 22.2%; inhibition [2, 12]: 11.7%; inhibition ([3]; Compound Concentration 1.0 uM): 15.8%; inhibition [4, 12]: 2.25%; inhibition [5, 12]: 1.85%; inhibition [6, 12]: -1.31%; inhibition [7, 12]: 8.25%; inhibition [8, 12]: 18.1%; inhibition [9, 12]: 45.9%; inhibition ([10]; Compound Concentration 1.0 uM): 7.39%
COc1cc(Nc2ccnc3ccc(Br)cc23)cc(OC)c1OC | 11.8 | 34.4 | 35 | 10 | 1.58 | 0.785 | 14.7 | 26.8 | 50.8 | 12.8 | 
CN1CCN(c2ccc(Nc3c4ccccc4nc4ccccc34)cc2)CC1 | 88.7 |  | 113 |  |  |  |  |  |  | 12.9 | inhibition [2, 13]: 90.3%; inhibition [4, 13]: 65.5%; inhibition [5, 13]: 90.9%; inhibition [6, 13]: 84.8%; inhibition [7, 13]: 84.8%; inhibition [8, 13]: 78.7%; inhibition [9, 13]: 73%
COc1ccccc1C(=O)Nc1cccc(NC(=O)c2cccc(C)c2)c1 | 14.3 | 18.5 | 8.28 | -5.33 | -3.15 | 15.4 | -2.96 | -5.33 | 19.8 | -7.92 | 
O=C(NCC(=O)N1CC[C@H](N[C@H]2CC[C@@](O)(c3ccc(-c4ncccn4)cn3)CC2)C1)c1cccc(C(F)(F)F)c1 | -4.26 | -2.02 | 10.3 | 2.76 | 6.25 | 0.458 | 1.04 | 2.1 | 24.3 | -9.06 | 
COc1ccc(CC(=O)NCc2ccccc2-c2ccccc2C(=O)NCc2ccc(F)cc2F)cc1 | 5.5 | 22.4 | 11.7 | 0.75 | 2.71 | -5.21 | -0.346 | 11 | 13.6 | 1.16 | 
CC(=O)[C@H]1CC[C@H]2[C@@H]3CC[C@H]4C[C@H](O)CC[C@]4(C)[C@H]3CC[C@]12C | 25.8 | 31.5 | 1.4 | 9.05 | 5.51 |  | 7.89 | 13.9 | 19.2 | -1.14 | inhibition [6, 13]: 46%
CCNC(=O)NS(=O)(=O)c1sc(CC(C)C)cc1-c1ccc(Cn2c(-c3ccccc3)nc(OC)c2C=O)cc1 |  | 51.7 | 90.4 | 12.3 | 7.29 | 8.82 | 21.2 | 36.2 | 64.7 | 6.28 | inhibition [1, 13]: 78.6%
CN[C@@H]1CCc2[nH]c3ccc(C(N)=O)cc3c2C1 | 14.9 | -3.1 | -4.97 | 8.84 | -0.483 | -9.8 | 3.36 | -7.16 | 16.1 | -5.51 | 
COc1ccccc1N1CCN(C[C@@H](C(=O)NC(C)(C)C)c2ccccc2)CC1 | 17.7 | 15.3 | -2.23 | 15.4 | -2.13 | 17.1 | -6.28 | 7.78 | 24.3 | -2.81 | 
CSc1ccc(C(=O)/C=C/c2cc(C)c(OC(C)(C)C(=O)O)c(C)c2)cc1 | 77.3 | -8.02 | 16.2 | 0.467 | 2.06 | 2 | 18.2 | 7.83 | 99.6 | -1.57 | 
Cn1nc(C(=O)NCc2ccc(C(=O)O)cc2)cc1-c1ccc2[nH]ccc2c1 | 70.9 | 115 | -5.73 | 1.38 | -4.83 | -3.92 | 0.23 | 8.36 | 56.9 | 0.276 | 
CC(C)(C)C1CCc2c(sc(NC(=O)c3ccco3)c2C(=O)O)C1 (stereo not given) | 32.2 | -0.565 | 30.5 | 4.9 | 17.7 | 33.6 | 36.3 | -0.636 | 25.9 | -0.0242 | 
COc1ccc(CCCN2CCC(COC(c3ccccc3)c3ccccc3)CC2)cc1 | 49.2 | 47.2 | 35 | 4.75 | 8.06 | 13.8 | -0.567 | 9.31 | 47.6 | -1.12 | 
O=c1cccc2n1C[C@@H]1CNC[C@H]2C1 | 10.5 | -3.1 | 43.9 | -1.18 | -3.15 | -4.39 | -5.41 | -3.8 | -5.51 | -3.14 | 
COc1ccc(NC(=O)c2ccc(-c3ccc(-c4noc(C)n4)cc3C)cc2)cc1OCCN(C)C |  |  | 104 | 1.34 | -1.11 | 8.82 | -3.51 | -6.46 |  | 2 | inhibition [1, 13]: 98%; inhibition [2, 13]: 83.7%; inhibition [9, 13]: 101%
